Among the data in patent publication US20090030024A1, “THIAZOLES AS FUNGICIDES” (priority 2005, published 2009) are chromatographic logP and logP values, retold here.

Marks after values point to notes of the source that are not given here.

One data set in a line: logP determination by retention times (calibration with alkan-2-ones).
Conditions: not given
By chromatographic logP is commonly meant lipophilicity estimated from chromatographic retention. The low end stands for a more hydrophilic compound, the high end for a more lipophilic compound. `COCc1nc(C)c(-c2ccnc(Nc3ccc(OC)c(OC)c3)n2)s1` [Example 404, N-(3,4-dimethoxyphenyl)-4-[2-(methoxymethyl)-4-methyl-1,3-thiazol-5-yl]pyrimidine-2-amine] came in with a chromatographic logP of 2.23. Take `Cc1nc(C(F)(F)F)c(-c2ccnc(Nc3cccc([N+](=O)[O-])c3)n2)s1` [Example 311, 4-[2-methyl-4-(trifluoromethyl)-1,3-thiazol-5-yl]-N-(3-nitrophenyl)pyrimidine-2-amine]: the chromatographic logP worked out at 3.5. In turn, `Cc1nc(N)sc1-c1ccnc(Nc2ccc(F)cc2)n1` [Example 208, 4-(2-amino-4-methyl-1,3-thiazol-5-yl)-N-(4-fluorophenyl)pyrimidine-2-amine] returned a chromatographic logP of 1.56. For the compound `Cc1nc(N(C)C2CC2)sc1-c1ccnc(Nc2ccccc2)n1` [Example 341, 4-{2-[cyclopropyl(methyl)amino]-4-methyl-1,3-thiazol-5-yl}-N-phenylpyrimidine-2-amine], the chromatographic logP worked out at 2.43. Same read-out and setting: the result for `Cc1nc(C2CCCCC2)sc1-c1ccnc(Nc2ccc(C(F)(F)F)cc2)n1` [Example 218, 4-(2-cyclohexyl-4-methyl-1,3-thiazol-5-yl)-N-[4-(trifluoromethyl)phenyl]pyrimidine-2-amine] reads 5.62; that for `COCc1nc(C)c(-c2ccnc(Nc3cccc(OC)c3)n2)s1` [Example 296, 4-[2-(methoxymethyl)-4-methyl-1,3-thiazol-5-yl]-N-(3-methoxyphenyl)pyrimidine-2-amine], 2.67. Still for that read-out and setting: the result for `CC(=O)c1cccc(Nc2nccc(-c3sc(N)nc3C)n2)c1` [Example 4, 1-(3-{[4-(2-amino-4-methyl-1,3-thiazol-5-yl)pyrimidin-2-yl]amino}phenyl)ethanone] reads 1.47. The same measure, in the same setting: the result for `COc1ccc(OC)c(Nc2nccc(-c3sc(C4CC4)nc3C)n2)c1` [Example 221, 4-(2-cyclopropyl-4-methyl-1,3-thiazol-5-yl)-N-(2,5-dimethoxyphenyl)pyrimidine-2-amine] reads 3.71. On to `COc1cccc(Nc2nccc(-c3sc(C4CC4)nc3C)n2)c1` [Example 224, 4-(2-cyclopropyl-4-methyl-1,3-thiazol-5-yl)-N-(3-methoxyphenyl)pyrimidine-2-amine], for which the chromatographic logP came out at 3.28.

The data set is the same for the next values; noted with them: * HPLC reversed-phase C18, 40° C., mobile phase 0.1% aqueous formic acid and acetonitrile, linear gradient 10% to 95% acetonitrile.
For the compound `COc1cc(Nc2nccc(-c3sc(N(C)C)nc3C(F)(F)F)n2)cc(OC)c1` [Example 707, N-(3,5-dimethoxyphenyl)-4-[2-(dimethylamine)-4-(trifluoromethyl)-1,3-thiazol-5-yl]pyrimidine-2-amine], the logP is given as 3.85*. Still for that read-out and setting: the figure for `Cc1nc(N(C)C)sc1-c1ccnc(Nc2ccccc2)n1` [Example 688, 4-[2-(dimethylamine)-4-methyl-1,3-thiazol-5-yl]-N-phenylpyrimidine-2-amine] is 1.98*.

The data set is the same for the next values; noted with them: HPLC, reversed-phase C 18, EEC Directive 79/831 Annex V.A8; method *: 40° C., 0.1% aqueous formic acid and acetonitrile, linear gradient 10% to 95% acetonitrile.
For the compound `CNc1nc(C)c(-c2ccnc(Nc3cc(OC)c(OC)c(OC)c3)n2)s1` [Example 313, 4-[4-methyl-2-(methylamine)-1,3-thiazol-5-yl]-N-(3,4,5-trimethoxyphenyl)pyrimidine-2-amine], the logP is listed as 1.53*.

For `CNc1nc(C)c(-c2ccnc(Nc3ccccc3)n2)s1` [Example 315, 4-[4-methyl-2-(methylamine)-1,3-thiazol-5-yl]-N-phenylpyrimidine-2-amine], the logP is 1.61*.

Staying with this data set, now noted: logP(HCOOH), HCOOH.
Consider `COc1cc(Nc2ncc(Cl)c(-c3sc(C)nc3C)n2)cc(OC)c1OC` [Example 874, 5-Chloro-4-(2,4-dimethyl-1,3-thiazol-5-yl)-N-(3,4,5-trimethoxyphenyl)-pyrimidine-2-amine], for which the chromatographic logP was 2.82.

The same data set, now with this note: logP, * HPLC reversed-phase C18, 40° C., mobile phase 0.1% aqueous formic acid and acetonitrile, linear gradient 10% to 95% acetonitrile.
In turn, `COCCNc1nc(C)c(-c2ccnc(Nc3cccc(NC(C)=O)c3)n2)s1` [Example 682, N-{3-[(4-{2-[(2-methoxyethyl)amino]-4-methyl-1,3-thiazol-5-yl}pyrimidin-2-yl)amino]phenyl}acetamide] came in with a chromatographic logP of 1.36.

The compound `COc1cc(Nc2nccc(-c3cnc(-c4ccccc4)s3)n2)cc(OC)c1OC` [Example 786, 4-(2-phenyl-1,3-thiazol-5-yl)-N-(3,4,5-trimethoxyphenyl)pyrimidine-2-amine] registered a chromatographic logP of 3.37. Still for that read-out and setting: the result for `COCC(C)Nc1nc(C)c(-c2ccnc(Nc3ccc(NS(C)(=O)=O)cc3)n2)s1` (stereo not shown) [Example 657, N-{4-[(4-{2-[(2-methoxy-1-methylethyl)amino]-4-methyl-1,3-thiazol-5-yl}pyrimidin-2-yl)amino]phenyl}methanesulphonamide] reads 1.53; that for `CC(=O)Nc1ccc(Nc2nccc(-c3sc(NCC4CCCO4)nc3C)n2)cc1` (stereo not shown) [Example 580, N-{4-[(4-{4-methyl-2-[(tetrahydrofuran-2-ylmethyl)amino]-1,3-thiazol-5-yl}pyrimidin-2-yl)amino]phenyl}acetamide], 1.39; that for `CC(=O)c1cccc(Nc2nccc(-c3sc(N4CCOCC4)nc3C)n2)c1` [Example 736, 1-(3-{[4-(4-methyl-2-morpholin-4-yl-1,3-thiazol-5-yl)pyrimidin-2-yl]amino}phenyl)ethanone], 2.16. On the same count and under the same terms, the figure for `CCc1nc(C)c(-c2ccnc(Nc3ccc(C(=O)NCCOC)cc3)n2)s1` [Example 711, 4-{[4-(2-ethyl-4-methyl-1,3-thiazol-5-yl)pyrimidin-2-yl]amino}-N-(2-methoxyethyl)benzamide] is 2.09; for `COc1cc(Nc2nccc(-c3sc(C)nc3C(F)(F)F)n2)cc(OC)c1` [Example 706, N-(3,5-dimethoxyphenyl)-4-[2-methyl-4-(trifluoromethyl)-1,3-thiazol-5-yl]pyrimidine-2-amine] it is 3.41.

The same data set, now with this note: logP, values marked *: HPLC on reversed-phase C 18, 40° C., mobile phase 0.1% aqueous formic acid and acetonitrile, linear gradient 10% to 95% acetonitrile.
Compound `COCCOc1nc(C)c(-c2ccnc(Nc3ccc(C(C)=O)cc3)n2)s1` [Example 916, 1-[4-({4-[2-(2-methoxyethoxy)-4-methyl-1,3-thiazol-5-yl]pyrimidin-2-yl}amino)phenyl]ethanone] yielded a chromatographic logP of 2.58. Same read-out and setting: the figure for `CCc1nc(C)c(-c2nc(Nc3ccc(S(=O)(=O)N(C)C)cc3)ncc2Br)s1` [Example 921, 4-{[5-bromo-4-(2-ethyl-4-methyl-1,3-thiazol-5-yl)pyrimidin-2-yl]amino}-N,N-dimethylbenzenesulphonamide] is 3.36; for `CCc1nc(C)c(-c2nc(Nc3ccccc3Cl)ncc2Cl)s1` [Example 878, 5-chloro-N-(2-chlorophenyl)-4-(2-ethyl-4-methyl-1,3-thiazol-5-yl)pyrimidine-2-amine] it is 4.62. For `COCCCNc1nc(C)c(-c2ccnc(Nc3cccc([N+](=O)[O-])c3)n2)s1` [Example 865, 4-{2-[(3-methoxypropyl)amino]-4-methyl-1,3-thiazol-5-yl}-N-(3-nitrophenyl)pyrimidine-2-amine], the chromatographic logP turned out to be 2.03. `COc1cc(Nc2ncc(Cl)c(-c3sc(C)nc3C)n2)cc(OC)c1OC` [Example 874, 5-Chloro-4-(2,4-dimethyl-1,3-thiazol-5-yl)-N-(3,4,5-trimethoxyphenyl)-pyrimidine-2-amine] yielded a chromatographic logP of 2.82. Compound `CC(=O)c1ccc(Nc2nccc(-c3sc(NCC4CCCO4)nc3C)n2)cc1` (stereo not shown) [Example 816, 1-{4-[(4-{4-methyl-2-[(tetrahydrofuran-2-ylmethyl)amino]-1,3-thiazol-5-yl}pyrimidin-2-yl)amino]phenyl}ethanone] displayed a chromatographic logP of 1.83.

Staying with this data set, now noted: values marked *: HPLC on reversed-phase C 18, 40° C., mobile phase 0.1% aqueous formic acid and acetonitrile, linear gradient 10% to 95% acetonitrile.
With `CC(=O)c1ccc(Nc2nccc(-c3sc(N(C)C)nc3C)n2)cc1` [Example 867, 1-[4-({4-[2-(dimethylamine)-4-methyl-1,3-thiazol-5-yl]pyrimidin-2-yl}amino)phenyl]ethanone], the logP is recorded as 1.9*.
